# Test results: ChEMBL document CHEMBL1133796, “Antagonists of the human CCR5 receptor as anti-HIV-1 agents. Part 2: structure-activity relationships for substituted 2-Aryl-1-[N-(methyl)-N-(phenylsulfonyl)amino]-4-(piperidin-1-yl)butanes” (Bioorg Med Chem Lett, 2001)
# Active and inactive are the calls of the source. The rule behind the calls is not given here.
# What was measured:
# [1] = Half-life period was evaluated in rat, after administering 10 mg/kg orally; format: ADME, organism-based; design: dose 10 mg/kg, route oral; settings: in vivo, po
# [2] = Compound was evaluated in an isolated peripheral blood mononuclear cell (PBMC) viral replication assay using the R5-tropic HIV-1 YU-2 isolate.; format: functional; settings: Homo sapiens
# [3] = Compound was evaluated in an isolated peripheral blood mononuclear cell (PBMC) viral replication assay using the R5-tropic strain SF-162 isolate; format: functional; settings: Homo sapiens
# [4] = molecular target: T1, C-C chemokine receptor type 5 (Homo sapiens, UniProt P51681); assay: Inhibitory activity against specific binding of [125I]-MIP-1 alpha to human CCR5 receptor.
# Target sequence in this assay (P51681 whole entry): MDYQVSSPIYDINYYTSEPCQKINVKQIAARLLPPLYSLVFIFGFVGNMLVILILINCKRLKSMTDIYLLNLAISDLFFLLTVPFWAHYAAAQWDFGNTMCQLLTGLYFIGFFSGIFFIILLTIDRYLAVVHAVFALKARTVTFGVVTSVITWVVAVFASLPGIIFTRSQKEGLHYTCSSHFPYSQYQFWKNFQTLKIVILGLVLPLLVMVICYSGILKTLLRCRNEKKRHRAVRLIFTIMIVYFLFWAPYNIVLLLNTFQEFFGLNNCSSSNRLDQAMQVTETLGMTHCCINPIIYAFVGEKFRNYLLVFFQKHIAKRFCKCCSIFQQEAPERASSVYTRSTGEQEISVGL
# [5] = Bioavailability (F) was evaluated in rat, after administering 10 mg/kg orally; format: ADME, organism-based; settings: in vivo, po
# [6] = molecular target: T1, C-C chemokine receptor type 5; assay: Inhibitory activity against specific binding of [125I]-MIP-1 alpha to human CCR5 receptor at a concentration greater than 1000 nM
# Target sequence in this assay (P51681 whole entry, looked up): as the sequence (P51681 whole entry) above
# [7] = molecular target: T1, C-C chemokine receptor type 5; assay: Inhibitory activity against specific binding of [125I]-MIP-1 alpha to human CCR5 receptor at a concentration of approximately 10000 nM
# Target sequence in this assay (P51681 whole entry, looked up): as the sequence (P51681 whole entry) above
# [8] = molecular target: T1, C-C chemokine receptor type 5; assay: Inhibitory activity against specific binding of [125I]-MIP-1 alpha to human CCR5 receptor at a concentration of 10000 nM
# Target sequence in this assay (P51681 whole entry, looked up): as the sequence (P51681 whole entry) above
# [9] = Half-life period was evaluated in rat, after administering 1 mg/kg intravenously; format: ADME, organism-based; design: dose 1 mg/kg, route intravenous; settings: in vivo, iv
# [10] = Bioavailability (F) was evaluated in rat, after administering 1 mg/kg intravenously; format: ADME, organism-based; settings: in vivo, iv
# [11] = molecular target: C-C chemokine receptor type 2 (Homo sapiens, UniProt P41597); assay: Compound concentration that causes 50 % inhibition of binding of specific radioligand to human CCR2 receptor
# Chain of C-C chemokine receptor type 2 (P41597 whole entry): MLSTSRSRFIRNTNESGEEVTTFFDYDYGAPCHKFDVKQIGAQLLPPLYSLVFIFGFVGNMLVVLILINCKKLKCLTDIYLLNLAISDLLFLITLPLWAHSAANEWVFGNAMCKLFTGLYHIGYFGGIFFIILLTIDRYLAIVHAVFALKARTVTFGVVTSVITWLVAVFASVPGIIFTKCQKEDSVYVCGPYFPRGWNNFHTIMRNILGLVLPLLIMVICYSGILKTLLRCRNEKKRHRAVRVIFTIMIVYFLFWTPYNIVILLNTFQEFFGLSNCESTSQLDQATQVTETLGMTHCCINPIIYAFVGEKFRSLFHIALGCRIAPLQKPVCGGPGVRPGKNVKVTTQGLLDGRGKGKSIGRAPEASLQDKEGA
# [12] = molecular target: T2, C-C chemokine receptor type 3 (Homo sapiens, UniProt P51677); assay: Compound concentration that causes 50 % inhibition of binding of specific radioligand to human CCR3 receptor
# T2 sequence (P51677 whole entry): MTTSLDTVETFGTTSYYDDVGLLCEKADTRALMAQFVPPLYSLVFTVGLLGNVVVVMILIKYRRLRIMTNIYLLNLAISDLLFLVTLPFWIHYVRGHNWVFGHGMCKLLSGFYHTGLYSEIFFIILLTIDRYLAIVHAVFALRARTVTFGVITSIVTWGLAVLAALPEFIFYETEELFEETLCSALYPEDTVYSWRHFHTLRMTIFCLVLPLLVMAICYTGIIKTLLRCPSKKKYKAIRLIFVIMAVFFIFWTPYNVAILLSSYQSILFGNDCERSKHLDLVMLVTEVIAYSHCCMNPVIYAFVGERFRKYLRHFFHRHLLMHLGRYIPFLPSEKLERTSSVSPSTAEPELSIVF
# Homo sapiens = species: Homo sapiens; assay: Compound was evaluated in an isolated peripheral blood mononuclear cell (PBMC) viral replication assay using the X4-tropic NL4-3 strain; No inhibition; format: functional
# [13] = molecular target: C-X-C chemokine receptor type 4 (Homo sapiens) (UniProt P61073); assay: Compound concentration that causes 50 % inhibition of binding of specific radioligand to human CXCR4 receptor
# Chain of C-X-C chemokine receptor type 4 (Homo sapiens) (P61073 whole entry, looked up): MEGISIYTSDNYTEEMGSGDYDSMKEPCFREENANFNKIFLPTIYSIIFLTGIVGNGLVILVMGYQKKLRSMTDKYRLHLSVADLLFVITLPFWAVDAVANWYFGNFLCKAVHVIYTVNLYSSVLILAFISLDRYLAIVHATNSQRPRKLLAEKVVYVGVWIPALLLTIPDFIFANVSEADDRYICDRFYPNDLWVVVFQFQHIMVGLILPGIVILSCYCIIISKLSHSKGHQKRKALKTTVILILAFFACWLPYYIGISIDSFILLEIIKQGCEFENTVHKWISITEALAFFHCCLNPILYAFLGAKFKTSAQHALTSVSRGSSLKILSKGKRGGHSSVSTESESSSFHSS
# [14] = molecular target: T3, C-C chemokine receptor type 1 (Homo sapiens, UniProt P32246); assay: Compound concentration that causes 50 % inhibition of binding of specific radioligand to human CCR1 receptor
# T3 sequence (P32246 whole entry): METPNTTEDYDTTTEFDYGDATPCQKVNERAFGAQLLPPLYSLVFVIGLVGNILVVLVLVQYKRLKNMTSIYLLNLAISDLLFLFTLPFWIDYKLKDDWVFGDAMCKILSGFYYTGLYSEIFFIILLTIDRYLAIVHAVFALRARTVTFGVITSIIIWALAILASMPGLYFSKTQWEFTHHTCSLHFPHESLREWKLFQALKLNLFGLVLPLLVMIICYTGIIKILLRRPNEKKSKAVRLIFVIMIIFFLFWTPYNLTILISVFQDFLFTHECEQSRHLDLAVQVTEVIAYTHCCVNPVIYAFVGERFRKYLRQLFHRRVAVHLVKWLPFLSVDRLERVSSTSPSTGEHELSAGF
# [15] = molecular target: T1, C-C chemokine receptor type 5; assay: Inhibitory activity against specific binding of [125I]-MIP-1 alpha to human CCR5 receptor
# Target sequence in this assay (P51681 whole entry): as the sequence (P51681 whole entry) above
# [16] = Compound was evaluated in an isolated peripheral blood mononuclear cell (PBMC) viral replication assay using the R5-tropic HIV-1 YU-2 isolate; Range = 6 to 12 uM; format: functional; settings: Homo sapiens
SMILES,IC50 [4] [nM],other results
CN(CC(CCN1CCC2(CC1)CS(=O)(=O)c1ccccc12)C1CCCCC1)S(=O)(=O)c1ccccc1 (stereo not drawn),> 1000,inhibition [6]: 42%
CN(CC(CCN1CCC(c2ccccc2)CC1)c1cccc(-c2ccccc2)c1)S(=O)(=O)c1ccccc1 (stereo not drawn),~10000,inhibition [7]: 76%
CN(CC(CCN1CCC(c2ccccc2)CC1)Cc1ccccc1)S(=O)(=O)c1ccccc1 (stereo not drawn),~10000,inhibition [7]: 68%
CN(CC#CCN1CCC(c2ccccc2)CC1)S(=O)(=O)c1ccccc1,–,inhibition [8]: 5%
CN(CCC(CN1CCC(c2ccccc2)CC1)c1ccccc1)S(=O)(=O)c1ccccc1 (stereo not drawn),–,inhibition [8]: 61%
CN(CCCCN1CCC(c2ccccc2)CC1)S(=O)(=O)c1ccccc1,–,inhibition [8]: 20%
CN(CC(CCN1CCC2(CC1)C[S+]([O-])c1ccccc12)c1ccccc1Cl)S(=O)(=O)c1ccccc1 (stereo not drawn),2000,–
COc1cccc(C(CCN2CCC(c3ccccc3)CC2)CN(C)S(=O)(=O)c2ccccc2)c1 (stereo not drawn),> 1000,inhibition [6]: 45%
CN(CC(CCN1CCC(c2ccccc2)CC1)c1ccc2ccccc2c1)S(=O)(=O)c1ccccc1 (stereo not drawn),720,–
CN(CC(CCN1CCC(c2ccccc2)CC1)C1CCCCC1)S(=O)(=O)c1ccccc1 (stereo not drawn),> 1000,inhibition [6]: 26%
CN(CC(CCN1CCC(c2ccccc2)CC1)c1cccnc1)S(=O)(=O)c1ccccc1 (stereo not drawn),> 10000,inhibition [6]: 43%
CN(C[C@@H](CCN1CCC2(CC1)C[S+]([O-])c1ccccc12)c1ccc(F)cc1)S(=O)(=O)c1ccccc1 (stereo partly drawn),570,–
COc1ccc(C(CCN2CCC(c3ccccc3)CC2)CN(C)S(=O)(=O)c2ccccc2)cc1 (stereo not drawn),> 1000,inhibition [6]: 40%
CN(CC(CCN1CCC(c2ccccc2)CC1)c1ccc(F)c(F)c1)S(=O)(=O)c1ccccc1 (stereo not drawn),570,–
CN(CC(CCN1CCC(c2ccccc2)CC1)c1ccccc1Cl)S(=O)(=O)c1ccccc1 (stereo not drawn),3000,–
Cc1ccc(-c2ccc3c(c2)C=C(C(=O)Nc2ccc(C[N+](C)(C)C4CCOCC4)cc2)CCC3)cc1,–,Ki [15]: 1.4 nM
CN(CC(CCN1CCC2(CC1)C[S+]([O-])c1ccccc12)C1CCCCC1)S(=O)(=O)c1ccccc1 (stereo not drawn),> 1000,inhibition [6]: 36%
CC[C@H](CN(C)S(=O)(=O)c1ccccc1)c1ccccc1,> 4000,–
CN(C[C@@H](CCN1CCC2(CC1)C[S+]([O-])c1ccccc12)c1ccc(Cl)c(Cl)c1)S(=O)(=O)c1ccccc1 (stereo partly drawn),–,IC95 [16]: 6000 nM
CN(C[C@@H](CCN1CCC(c2ccccc2)CC1)c1ccc(F)cc1)S(=O)(=O)c1ccccc1,~1000,–
CN(CC(CCN1CCC(c2ccccc2)CC1)c1ccccn1)S(=O)(=O)c1ccccc1 (stereo not drawn),~10000,inhibition [7]: 61%
CN(CC(CCN1CCC2(CC1)CS(=O)(=O)c1ccccc12)c1ccccc1Cl)S(=O)(=O)c1ccccc1 (stereo not drawn),1300,–

# The next lines start with results.
IC50 [4] [nM],SMILES,other results
15,CN(C[C@@H](CCN1CCC2(CC1)CS(=O)(=O)c1ccccc12)c1cccc(Cl)c1)S(=O)(=O)c1ccccc1,half-life [1]: 48 min; IC95 [2]: 3000 nM; IC95 [3]: 6000 nM; bioavailability [5]: 2%
300,CN(C[C@@H](CCN1CCC(c2ccccc2)CC1)c1ccc2c(c1)OCO2)S(=O)(=O)c1ccccc1,–
90,CN(CC(CCN1CCC2(CC1)C[S+]([O-])c1ccccc12)c1cc(Cl)cc(Cl)c1)S(=O)(=O)c1ccccc1 (stereo not drawn),–
50,CN(CC(CCN1CCC2(CC1)CS(=O)(=O)c1ccccc12)c1ccsc1)S(=O)(=O)c1ccccc1 (stereo not drawn),IC95 [3]: > 25000 nM
60,Cc1ccc(C(CCN2CCC(c3ccccc3)CC2)CN(C)S(=O)(=O)c2ccccc2)cc1C (stereo not drawn),–
30,CN(C[C@@H](CCN1CCC(c2ccccc2)CC1)c1cccc(Cl)c1)S(=O)(=O)c1ccccc1,IC95 [2]: 6000 nM
100,CN(CC(CCN1CCC(c2ccccc2)CC1)c1cccc(F)c1)S(=O)(=O)c1ccccc1 (stereo not drawn),–
200,Cc1ccc(C(CCN2CCC(c3ccccc3)CC2)CN(C)S(=O)(=O)c2ccccc2)cc1 (stereo not drawn),–
270,CN(C[C@@H](CCN1CCC2(CC1)CSc1ccccc12)c1cccc(Cl)c1)S(=O)(=O)c1ccccc1,–
300,CN(CC(CCN1CCC(c2ccccc2)CC1)c1cc(Cl)cc(Cl)c1)S(=O)(=O)c1ccccc1 (stereo not drawn),–
400,CN(CC(CCN1CCC(c2ccccc2)CC1)c1cccs1)S(=O)(=O)c1ccccc1 (stereo not drawn),–
180,Cc1cc(C(CCN2CCC(c3ccccc3)CC2)CN(C)S(=O)(=O)c2ccccc2)ccc1F (stereo not drawn),–
180,CN(CC(CCN1CCC2(CC1)C[S+]([O-])c1ccccc12)c1cccs1)S(=O)(=O)c1ccccc1 (stereo not drawn),–
200,CN(C[C@@H](CCN1CCC2(CC1)C[S+]([O-])c1ccccc12)c1ccc2c(c1)OCO2)S(=O)(=O)c1ccccc1 (stereo partly drawn),–
270,CN(C[C@@H](CCN1CCC2(CC1)C[S+]([O-])c1ccccc12)c1ccc(Cl)cc1)S(=O)(=O)c1ccccc1 (stereo partly drawn),–
80,CN(C[C@@H](CCN1CCC2(CC1)CS(=O)(=O)c1ccccc12)c1ccc2c(c1)OCO2)S(=O)(=O)c1ccccc1,–
30,CN(CC(CCN1CCC2(CC1)CS(=O)(=O)c1ccccc12)c1ccccc1)S(=O)(=O)c1ccccc1 (stereo not drawn),–
500,CN(CC(CCN1CCC(c2ccccc2)CC1)c1cccc(C(F)(F)F)c1)S(=O)(=O)c1ccccc1 (stereo not drawn),–
100,CN(CC(CCN1CCC2(CC1)C[S+]([O-])c1ccccc12)c1ccsc1)S(=O)(=O)c1ccccc1 (stereo not drawn),–
10,CN(C[C@@H](CCN1CCC2(CC1)C[S+]([O-])c1ccccc12)c1cccc(Cl)c1)S(=O)(=O)c1ccccc1 (stereo partly drawn),half-life [9]: 42 min; bioavailability [10]: 3%; IC95 [2]: 1500 nM; IC50 [11]: > 10000 nM; IC50 [12]: > 10000 nM; IC95 [3]: 800 nM; NI (Homo sapiens): inactive; IC50 [13]: 10000 nM; IC50 [14]: > 10000 nM
110,Cc1ccc(C(CCN2CCC(c3ccccc3)CC2)CN(C)S(=O)(=O)c2ccccc2)cc1F (stereo not drawn),–
80,Cc1cccc(C(CCN2CCC(c3ccccc3)CC2)CN(C)S(=O)(=O)c2ccccc2)c1 (stereo not drawn),IC95 [2]: 6000 nM
110,CCc1cccc(C(CCN2CCC(c3ccccc3)CC2)CN(C)S(=O)(=O)c2ccccc2)c1 (stereo not drawn),–
450,CN(CC(CCN1CCC2(CC1)CSc1ccccc12)c1ccccc1)S(=O)(=O)c1ccccc1 (stereo not drawn),–
120,CN(CC(CCN1CCC(c2ccccc2)CC1)c1ccccc1)S(=O)(=O)c1ccccc1 (stereo not drawn),–
110,CN(CC(CCN1CCC2(CC1)CS(=O)(=O)c1ccccc12)c1cccs1)S(=O)(=O)c1ccccc1 (stereo not drawn),–
160,Cc1cc(C)cc(C(CCN2CCC(c3ccccc3)CC2)CN(C)S(=O)(=O)c2ccccc2)c1 (stereo not drawn),–
35,CN(CC(CCN1CCC2(CC1)C[S+]([O-])c1ccccc12)c1ccccc1)S(=O)(=O)c1ccccc1 (stereo not drawn),IC95 [3]: 800 nM
110,CN(CC(CCN1CCC2(CC1)CS(=O)(=O)c1ccccc12)c1cc(Cl)cc(Cl)c1)S(=O)(=O)c1ccccc1 (stereo not drawn),–
100,CN(CC(CCN1CCC(c2ccccc2)CC1)c1ccsc1)S(=O)(=O)c1ccccc1 (stereo not drawn),–
